Measured values from the supplement of paper PMC10307832.

Experiments:
Assay in all cases: relative viability (nuclei count vs DMSO), 5 days (fraction); higher = more cells survive
Masitinib + Olaparib = compound: Cc1ccc(NC(=O)c2ccc(CN3CCN(C)CC3)cc2)cc1Nc1nc(-c2cccnc2)cs1 [Masitinib] + O=C(c1cc(Cc2n[nH]c(=O)c3ccccc23)ccc1F)N1CCN(C(=O)C2CC2)CC1 [Olaparib] (partner 8 µM)
Method in brief: (§1)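 Lung cancer cell lines were pin-tool dosed in 1536-well plates on the day after seeding, with either a lone drug or a fixed anchor-drug dose plus five library-drug doses (not always all listed) in √10 steps. Nuclei were counted on 4× images after 5 days. Relative viability is the ratio of treated-well to vehicle-well nuclei counts, with each value a median of duplicate plates.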

Masitinib + Tozasertib = compound: Cc1ccc(NC(=O)c2ccc(CN3CCN(C)CC3)cc2)cc1Nc1nc(-c2cccnc2)cs1 [Masitinib] + Cc1cc(Nc2cc(N3CCN(C)CC3)nc(Sc3ccc(NC(=O)C4CC4)cc3)n2)n[nH]1 [Tozasertib] (partner 0.1 µM)
Method in brief: as §1

Masitinib + Luminespib = compound: Cc1ccc(NC(=O)c2ccc(CN3CCN(C)CC3)cc2)cc1Nc1nc(-c2cccnc2)cs1 [Masitinib] + CCNC(=O)c1noc(-c2cc(C(C)C)c(O)cc2O)c1-c1ccc(CN2CCOCC2)cc1 [Luminespib] (partner 0.01 µM)
Method in brief: as §1

[1] = compound: CC1=CC(=CC=C1)NC2=NC(=CS2)C3=CC=NC=C3 + O=C(CCCCCCC(=O)Nc1ccccc1)NO [Vorinostat] (partner 1 µM)
Method in brief: as §1

Cell Line	relative viability (Masitinib + Olaparib; first compound 0.03162 µM)	relative viability (Masitinib + Olaparib; first compound 0.3162 µM)	relative viability (Masitinib + Olaparib; first compound 1 µM)	relative viability (Masitinib + Tozasertib; first compound 0.03162 µM)	relative viability (Masitinib + Tozasertib; first compound 0.3162 µM)	relative viability (Masitinib + Tozasertib; first compound 1 µM)	relative viability (Masitinib + Luminespib; first compound 0.03162 µM)	relative viability (Masitinib + Luminespib; first compound 0.3162 µM)	relative viability (Masitinib + Luminespib; first compound 1 µM)	relative viability ([1]; first compound 0.08 µM)	relative viability ([1]; first compound 0.253 µM)	relative viability ([1]; first compound 0.8 µM)	relative viability ([1]; first compound 2.53 µM)	relative viability ([1]; first compound 8 µM)	relative viability (Masitinib + Olaparib; first compound 0.01 µM)	relative viability (Masitinib + Olaparib; first compound 0.1 µM)	relative viability (Masitinib + Tozasertib; first compound 0.01 µM)	relative viability (Masitinib + Tozasertib; first compound 0.1 µM)	relative viability (Masitinib + Luminespib; first compound 0.01 µM)	relative viability (Masitinib + Luminespib; first compound 0.1 µM)
NCI-H1915	0.289	0.254	0.238	0.453	0.44	0.387	0.815	0.938	0.896	0.442	0.452	0.477	0.501	0.525						
ChaGo-K-1	0.435	0.35	0.392	0.202	0.192	0.21	0.48	0.524	0.569	0.681	0.735	0.734	0.777	0.777	0.39	0.405	0.205	0.21	0.681	0.635
NCI-H661	0.779	0.731	0.711	0.372	0.342	0.363	0.916	0.897	0.903	0.764	0.753	0.747	0.718	0.666	0.722	0.802	0.338	0.344	0.831	0.951
COR-L23	0.329	0.309	0.27	0.164	0.124	0.15	0.598	0.931	0.579	0.251	0.422	0.317	0.375	0.36	0.35	0.361	0.207	0.168	0.598	0.798
COR-L 105	0.532	0.494	0.498	0.353	0.333	0.317	0.677	0.686	0.66	0.831	0.776	0.724	0.724	0.818	0.655	0.689	0.377	0.361	0.758	0.776
LK-2	0.679	0.615	0.7	0.167	0.158	0.165	0.183	0.151	0.175	0.356	0.307	0.527	0.402	1	0.8	1.01	0.177	0.177	0.183	0.132
201T	0.901	0.721	0.806	1.01	0.789	0.926	1.13	1.07	0.993	0.933	0.937	0.92	0.842	0.76	0.702	0.765	0.711	0.85	0.821	0.944
HCC-44	0.968	0.916	0.963	1.13	0.799	0.599	1.17	1.03	1.09	1.02	0.926	0.826	0.797	0.825	0.939	0.979	0.865	0.876	1.04	1.08
NCI-H647	0.408	0.596	0.642	0.209	0.261	0.232	0.141	0.195	0.259	0.576	0.531	0.591	0.498	0.454	0.572	0.789	0.212	0.394	0.223	0.13
H3255	0.566	0.545	0.555	0.712	0.687	0.608	0.772	1.02	0.838	0.758	0.723	0.65	0.666	0.717	0.474	0.513	0.437	0.502	0.586	0.611
NCI-H650	0.386	0.394	0.324	0.732	0.745	0.665	0.908	0.853	0.766	0.414	0.429	0.395	0.624	0.599	0.41	0.422	0.642	0.717	0.7	0.798
NCI-H2085	0.805	0.815	0.728	0.779	0.479	0.663	0.428	0.403	0.443	0.763	0.763	0.693	0.755	0.645	0.729	0.798	0.691	0.865	0.368	0.423
NCI-H2347	0.591	0.621	0.53	0.457	0.563	0.394	0.299	0.556	0.326	0.512	0.671	0.411	0.657	0.501	0.507	0.597	0.379	0.536	0.758	0.41
NCI-H2170	0.698	0.576	0.559	0.685	0.739	0.671	0.689	0.631	1.02	0.695	0.901	0.731	0.697	0.599	0.546	0.672	0.778	0.746	0.645	1.02
NCI-H1944	0.344	0.364	0.374	0.214	0.205	0.247	0.829	0.576	0.697	0.364	0.489	0.529	0.366	0.408						
NCI-H596	0.657	0.581	0.633	0.73	1.08	0.716	1.03	0.53	1.02	0.552	0.489	0.453	0.529	0.422	0.593	0.634	0.972	1.07	0.936	1.11
NCI-H520	0.409	0.332	0.277	0.476	0.451	0.358	0.24	0.217	0.2	0.624	0.694	0.779	0.851	0.838	0.305	0.362	0.368	0.566	0.223	0.24

Cell Line	relative viability (Masitinib + Olaparib; first compound 0.03162 µM)	relative viability (Masitinib + Olaparib; first compound 0.3162 µM)	relative viability (Masitinib + Olaparib; first compound 1 µM)	relative viability (Masitinib + Tozasertib; first compound 0.03162 µM)	relative viability (Masitinib + Tozasertib; first compound 0.3162 µM)	relative viability (Masitinib + Tozasertib; first compound 1 µM)	relative viability (Masitinib + Luminespib; first compound 0.03162 µM)	relative viability (Masitinib + Luminespib; first compound 0.3162 µM)	relative viability (Masitinib + Luminespib; first compound 1 µM)	relative viability ([1]; first compound 0.08 µM)	relative viability ([1]; first compound 0.253 µM)	relative viability ([1]; first compound 0.8 µM)	relative viability ([1]; first compound 2.53 µM)	relative viability ([1]; first compound 8 µM)	relative viability (Masitinib + Olaparib; first compound 0.01 µM)	relative viability (Masitinib + Olaparib; first compound 0.1 µM)	relative viability (Masitinib + Tozasertib; first compound 0.01 µM)	relative viability (Masitinib + Tozasertib; first compound 0.1 µM)	relative viability (Masitinib + Luminespib; first compound 0.01 µM)	relative viability (Masitinib + Luminespib; first compound 0.1 µM)
EKVX	0.704		0.744	0.409	0.443	0.333	0.997	0.93	0.786	0.31	0.585	0.507	0.488	0.502	0.653	0.766		0.405		0.599
SK-MES-1	0.761	0.629	0.653	0.907	0.677	0.81	0.776	0.707	0.686	0.851	0.829	0.819	0.86	0.822	0.775	0.798	1.02	0.925	0.544	0.992
EPLC-272H		0.655	0.768	0.352	0.357	0.244	0.237	0.195	0.232	0.483	0.353	0.465	0.292	0.639	0.927	0.866	0.342	0.361	0.27	0.262
NCI-H1650	0.711	0.614	0.884	0.329	0.326	0.23	0.227	0.191	0.206	0.587	0.533	0.489	0.51	0.404	0.675	0.751	0.346	0.297	0.195	0.221
NCI-H1395	0.465	0.422	0.432	0.678	0.782	0.624	0.682	0.506	0.611	0.618		0.804	0.478	0.537	0.473	0.471	0.713	0.828	0.626	0.864
NCI-H2228	0.589	0.548	0.661	0.199	0.217	0.221	0.189	0.148	0.15	0.343	0.514	0.42	0.412	0.824	0.756	0.622	0.242	0.232	0.172	0.16
NCI-H2023	0.422	0.427	0.44	0.356	0.184	0.189	0.664	0.69	0.753	0.594	0.429	0.689	0.531	0.405	0.63	0.458	0.327	0.279	0.61	0.786
SW 900	0.878	0.684	0.966	0.608	0.442	0.455	0.156	0.158	0.185	0.433	0.357	0.516	0.33	0.188	0.809	0.918	0.58	0.542	0.165	0.163
NCI-H3122	0.604	0.589	0.615	0.502	0.387	0.417	0.0826	0.109	0.0792	0.912	0.709	1.05	1.03	0.961	0.64	0.703			0.109	0.0942
LOU-NH91	0.917	0.869	0.908	0.666	0.588	0.626	0.32	0.272	0.372	0.766	0.776	0.887	0.861	0.436	0.883	0.902	0.641	0.728	0.307	0.337
NCI-H322M	0.726	0.729	0.128	0.513	0.449	0.467	0.924	0.876	0.812	0.788	0.759	0.916	0.814	0.95	0.733	0.857	0.452	0.485	0.875	0.878
HCC-827	0.642	0.624	0.695	0.444	0.457	0.514	0.906	0.558	0.583	0.778	0.772	0.819	0.651	0.653	0.564	0.655	0.378	0.444	0.597	0.816
SW 1573	0.472	0.431	0.453	0.144	0.15	0.135	0.231	0.261	0.302	0.739	0.748	0.815	0.727	0.687	0.505	0.591	0.133	0.213	0.172	0.214
NCI-H1993	0.876	1.1	1.01	0.554	0.593	0.498	0.791	0.7	0.766	0.691	0.649	0.726	0.819	0.726	1.13	1.19	0.519	0.547	0.851	0.701
NCI-H1734	0.564	0.618	0.6	0.27	0.276	0.272	0.195	0.187	0.172	0.725	0.77	0.782	0.752	0.681	0.557	0.623	0.285	0.318	0.194	0.188
NCI-H1666	0.716	0.695	0.73	0.495	0.58	0.585	1.05	1.03	1.01	0.622	0.821	0.702	0.79	0.735	0.736	0.724		0.586		1.1
